In patent publication US20160137746A1, “METHODS FOR TREATING HIGH CARDIOVASCULAR RISK PATIENTS WITH HYPERCHOLESTEROLEMIA” (Sanofi Biotechnology, priority 2014, published 2016):

Key:
[1] = test system: high cardiovascular risk patients with hypercholesterolemia; test: ODYSSEY COMBO II: safety (TEAEs, adjudicated CV events, laboratory parameters, low LDL-C)
Description: (§1) Safety assessments during both studies were as follows. Safety was assessed through adverse event (AE) reporting (including adjudicated cardiovascular events), laboratory analyses, and vital signs measurement. Since the LDL-C-lowering effects of PCSK9 inhibition on top of a statin are unknown, a number of AEs were defined as being of special interest and were monitored, including alanine aminotransferase abnormalities, allergic events, hemolytic anemia, pregnancy, overdose with study drug, neurologic events, ophthalmic events, and local injection site reactions.
(§2) Safety Analyses were as follows. AEs (including adjudicated cardiovascular events), laboratory parameters, and vital signs were reported descriptively, based on the safety population (all randomized patients who received at least 1 dose or partial dose of study treatment). The safety analysis focused on the treatment-emergent AE period defined as the time from the first double-blind dose to the last double-blind dose of the investigational product +70 days (10 weeks).
(§3) The safety population included all randomized patients who received at least one dose or part of a dose of the double-blind IMP.
(§4) Safety analyses were descriptive, performed on the safety population according to treatment actually received. For analysis of TEAE and PCSA, the safety analysis focused on the TEAE period defined as the time from the first dose of double-blind IMP administration (capsule or injection, whichever comes first) up to 70 days after the last double-blind injection.

[2] = test system: high cardiovascular risk patients with hypercholesterolemia; details: human, in vivo, 52 weeks
Description: as §1, §2, §3, §4

[3] = test system: high cardiovascular risk patients with hypercholesterolemia; test: ODYSSEY COMBO II: lipid efficacy of alirocumab vs ezetimibe, add-on to maximally tolerated statin; format: in vivo, human; details: for Calculated LDL-C percent change from baseline, LS mean (SE): ITT population, MMRM, alirocumab 75 Q2W/Up150 Q2W, ezetimibe 10
Description: Each of the COMBO studies was randomized, double-blinded, and placebo-controlled.
The primary efficacy endpoint for each study was the difference between treatment arms in the percent change in LDL-C from baseline to Week 24.
Apo, apolipoprotein; HDL-C, high-density lipoprotein cholesterol; ITT, intent-to-treat; LDL-C, low-density lipoprotein cholesterol; Lp(a), lipoprotein (a); TG, triglycerides.
COMBO II was a Phase 3, randomized, double-blind, active-controlled, parallel-group, multinational 104-week study. The study enrolled high-risk patients with uncontrolled hypercholesterolemia on stable, maximally tolerated daily statin therapy. Unlike COMBO I, with a placebo arm, COMBO II incorporated an active-treatment arm (ezetimibe) with double-dummy design (FIG. 1B) and patients were not allowed to receive any other lipid lowering therapies besides statin and their randomized treatment.
After randomization, patients entered a double-blind, double-dummy treatment period of 104 weeks.
Primary analyses of efficacy endpoints were conducted using an ITT approach (based on the ITT population defined above), including all lipid data, regardless of whether the patient was continuing therapy or not. This corresponds to ITT estimands, defined for primary and key secondary endpoints. In addition, analyses were also conducted using an on-treatment approach (based on the mITT population defined above), including lipid data collected during the efficacy treatment period. This corresponds to on-treatment estimands of key secondary endpoints.
With regards to the primary efficacy analysis (ITT approach), the percent change in calculated LDL-C from baseline to Week 24 was analyzed using a mixed-effect model with repeated measures (MMRM) approach.

[4] = safety population at 52 weeks, all patients, number (%) of patients
[5] = treatment period, safety population

O=C1[C@H](CC[C@H](O)c2ccc(F)cc2)[C@@H](c2ccc(O)cc2)N1c1ccc(F)cc1 [Ezetimibe, ezetimibe, reference compound]
Adjudicated cardiovascular events ([1]; in vivo): 3.7% | SOC gastrointestinal disorders ([1]; in vivo): 13.7% | SOC infections and infestations ([1]; in vivo): 25.3% | SOC musculoskeletal and connective tissue disorders ([1]; in vivo): 17.0% | Treatment-emergent local injection site reactions ([1]; in vivo): 0.8% | Patients who experienced at least one TEAE ([1]; mean 58 weeks' follow-up): 67.2% | Serious adverse event ([1]; mean 58 weeks' follow-up): 17.8% | TEAE leading to death ([1]; mean 58 weeks' follow-up): 4 (1.7%) n (%) | TEAEs leading to treatment discontinuation ([1]; mean 58 weeks' follow-up): 5.4% | Laboratory parameters: Blood glucose increased [1, 4]: 3 (1.2) | Laboratory parameters: Hemoglobin decreased [1, 4]: 2 (0.8) | Patients experiencing any TEAE [1, 4]: 162 (67.2) | TEAE preferred term: Accidental overdose [1, 4]: 16 (6.6) | TEAE preferred term: Angina pectoris [1, 4]: 11 (4.6) | TEAE preferred term: Arthralgia [1, 4]: 9 (3.7) | TEAE preferred term: Dizziness [1, 4]: 13 (5.4) | TEAE preferred term: Headache [1, 4]: 10 (4.1) | TEAE preferred term: Hypertension [1, 4]: 10 (4.1) | TEAE preferred term: Myalgia [1, 4]: 12 (5.0) | TEAE preferred term: Nasopharyngitis [1, 4]: 9 (3.7) | TEAE preferred term: Upper respiratory tract infection [1, 4]: 14 (5.8) | TEAE system organ class: Blood and lymphatic system disorders [1, 4]: 8 (3.3) | TEAE system organ class: Cardiac disorders [1, 4]: 29 (12.0) | TEAE system organ class: Eye disorders [1, 4]: 9 (3.7) | TEAE system organ class: Gastrointestinal disorders [1, 4]: 33 (13.7) | TEAE system organ class: General disorders and administration site conditions [1, 4]: 26 (10.8) | TEAE system organ class: Infections and infestations [1, 4]: 61 (25.3) | TEAE system organ class: Injury, poisoning, and procedural complications [1, 4]: 33 (13.7) | TEAE system organ class: Investigations [1, 4]: 21 (8.7) | TEAE system organ class: Metabolism and nutrition disorders [1, 4]: 18 (7.5) | TEAE system organ class: Musculoskeletal and connective tissue disorders [1, 4]: 41 (17.0) | TEAE system organ class: Neoplasms, benign, malignant and unspecified (including cysts and polyps) [1, 4]: 7 (2.9) | TEAE system organ class: Nervous system disorders [1, 4]: 40 (16.6) | TEAE system organ class: Psychiatric disorders [1, 4]: 12 (5.0) | TEAE system organ class: Renal and urinary disorders [1, 4]: 13 (5.4) | TEAE system organ class: Reproductive system and breast disorders [1, 4]: 2 (0.8) | TEAE system organ class: Respiratory, thoracic, and mediastinal disorders [1, 4]: 22 (9.1) | TEAE system organ class: Skin and subcutaneous tissue disorders [1, 4]: 15 (6.2) | TEAE system organ class: Vascular disorders [1, 4]: 20 (8.3) | Patients with 2 consecutive calculated LDL-C value <15 mg/dL [1, 5]: 0/230 | Patients with 2 consecutive calculated LDL-C value <25 mg/dL [1, 5]: 0/230 | Patients with 2 consecutive calculated LDL-C value <25 mg/dL ([1]; treatment period, safety population, listed as ezetimibe): none | TEAE preferred term: Influenza [2]: 7 (2.9) | Achieved LDL-C, median ([3]; 24 weeks, FIG. 7): 70 mg/dL | Calculated LDL-C, LS mean (SE) percent change from baseline ([3]; ITT, Week 24): −20.7 (1.9) % | Fasting TGs, LS mean percent change from baseline ([3]; ITT, Week 24): −12.8% | Calculated LDL-C, LS mean (SE) percent change from baseline ([3]; ITT, Week 24, listed as ezetimibe): −20.7% | Calculated LDL-C percent change from baseline, LS mean (SE) ([3]; Week 4): −25.3 (1.6) % | Calculated LDL-C percent change from baseline, LS mean (SE) ([3]; Week 8): −24.3 (1.7) % | Calculated LDL-C percent change from baseline, LS mean (SE) ([3]; Week 12): −21.8 (1.8) % | Calculated LDL-C percent change from baseline, LS mean (SE) ([3]; Week 16): −23.0 (1.8) % | Fasting TGs reduced from baseline ([3]; Week 24): 13.3% | Mean achieved LDL-C ([3]; Week 24): 82.5 (2.0) mg/dL | Calculated LDL-C percent change from baseline, LS mean (SE) ([3]; Week 24): −20.7 (1.9) % | Apo-B - Percent change from baseline to Week 24, LS mean vs. baseline ([3]; Week 24, On-treatment analysis): −19.1 (1.4) | Calculated LDL-C - Percent change from baseline to Week 24, LS mean vs. baseline ([3]; Week 24, On-treatment analysis): −21.8 (1.8) % | Non-HDL-C - Percent change from baseline to Week 24, LS mean vs. baseline ([3]; Week 24, On-treatment analysis): −20.2 (1.6) | HDL-C percent change from baseline to week 24 ([3]; Week 24, on-treatment analysis): 0.8 (1.1) | Lipoprotein(a) percent change from baseline to week 24 ([3]; Week 24, on-treatment analysis): −5.6 (1.9) | Total cholesterol percent change from baseline to week 24 ([3]; Week 24, on-treatment analysis): −15.2 (1.2) | Triglycerides (fasted) percent change from baseline to week 24 ([3]; Week 24, on-treatment analysis): −13.3 (2.0) | Calculated LDL-C percent change from baseline, LS mean (SE) ([3]; Week 36): −19.3 (2.0) % | Calculated LDL-C percent change from baseline, LS mean (SE) ([3]; Week 52): −18.3 (2.1) %
